The values below come from patent US20040156869A1, “2-substituted quinazolin-4-ylamine analogues” (Neurogen Corporation, priority 2002, published 2004).

Chain of human capsaicin receptor (VR1) (Q8NER1 whole entry): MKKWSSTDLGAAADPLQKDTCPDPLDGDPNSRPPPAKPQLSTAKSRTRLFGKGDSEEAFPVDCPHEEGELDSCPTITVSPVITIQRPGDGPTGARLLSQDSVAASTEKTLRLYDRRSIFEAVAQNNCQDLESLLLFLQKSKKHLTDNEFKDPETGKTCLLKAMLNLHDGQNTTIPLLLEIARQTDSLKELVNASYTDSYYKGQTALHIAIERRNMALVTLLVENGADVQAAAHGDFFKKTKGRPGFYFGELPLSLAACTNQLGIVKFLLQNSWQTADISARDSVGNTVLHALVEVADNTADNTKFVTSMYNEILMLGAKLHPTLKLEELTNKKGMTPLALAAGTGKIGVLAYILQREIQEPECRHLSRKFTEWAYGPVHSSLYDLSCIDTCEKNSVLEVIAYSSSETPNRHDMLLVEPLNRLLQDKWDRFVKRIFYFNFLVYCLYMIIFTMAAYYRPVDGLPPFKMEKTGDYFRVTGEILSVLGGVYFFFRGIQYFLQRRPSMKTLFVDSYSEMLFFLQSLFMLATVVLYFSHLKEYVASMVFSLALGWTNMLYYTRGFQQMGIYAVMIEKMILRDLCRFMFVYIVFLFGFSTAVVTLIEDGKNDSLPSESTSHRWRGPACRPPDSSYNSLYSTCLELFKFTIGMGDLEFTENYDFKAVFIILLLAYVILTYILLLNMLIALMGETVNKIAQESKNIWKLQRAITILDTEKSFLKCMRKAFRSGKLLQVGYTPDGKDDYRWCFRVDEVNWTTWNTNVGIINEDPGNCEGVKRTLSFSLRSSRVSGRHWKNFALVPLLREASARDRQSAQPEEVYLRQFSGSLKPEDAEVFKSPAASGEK

The experiment addresses human capsaicin receptor (VR1) (Homo sapiens, UniProt Q8NER1). Kind of experiment: Capsaicin receptor binding assay ([3H]RTX competition, VR1-transfected HEK293 membranes).
The term Ki denotes a dissociation constant, usually derived from enzyme kinetics or from competition with a known ligand. Low values mean tighter binding, high ones weaker binding. Turning to `CC1CCCCN1Cc1nc(Nc2ccc(C(F)(F)F)nc2)c2ccc(-c3ncccc3C(F)(F)F)cc2n1` (centres unmarked) [Compound 379, [2-(2-Methyl-piperidin-1-ylmethyl)-7-(3-trifluoromethyl-pyridin-2-yl)-quinazolin-4-yl]-(6-trifluoromethyl-pyridin-3-yl)-amine], the Ki was less than 1000 nM. The figure for `C=C(C)CN(CC)Cc1nc(Nc2ccc(C(F)(F)F)nc2)c2ccc(-c3ncccc3C(F)(F)F)cc2n1` [Compound 380, [2-{[Ethyl-(2-methyl-allyl)-amino]-methyl}-7-(3-trifluoromethyl-pyridin-2-yl)-quinazolin-4-yl]-(6-trifluoromethyl-pyridin-3-yl)-amine] is less than 1000 nM; for `CN(Cc1nc(Nc2ccc(C(F)(F)F)nc2)c2ccc(-c3ncccc3C(F)(F)F)cc2n1)C1CCCCC1` [Compound 381, [2-[(Cyclohexyl-methyl-amino)-methyl]-7-(3-trifluoromethyl-pyridin-2-yl)-quinazolin-4-yl]-(6-trifluoromethyl-pyridin-3-yl)-amine] it is less than 1000 nM.

Compound `CCC1CCCCN1Cc1nc(Nc2ccc(C(F)(F)F)nc2)c2ccc(-c3ncccc3C(F)(F)F)cc2n1` (centres unmarked) [Compound 382, [2-(2-Ethyl-piperidin-1-ylmethyl)-7-(3-trifluoromethyl-pyridin-2-yl)-quinazolin-4-yl]-(6-trifluoromethyl-pyridin-3-yl)-amine] returned an inhibitory constant (Ki) of less than 1000 nM. Under `CCN(Cc1nc(Nc2ccc(C(F)(F)F)nc2)c2ccc(-c3ncccc3C(F)(F)F)cc2n1)C1CCCCC1` [Compound 383, [2-[(Cyclohexyl-ethyl-amino)-methyl]-7-(3-trifluoromethyl-pyridin-2-yl)-quinazolin-4-yl]-(6-trifluoromethyl-pyridin-3-yl)-amine] stands less than 1000 nM. Turning to `COCCN(CCOC)Cc1nc(Nc2ccc(C(F)(F)F)nc2)c2ccc(-c3ncccc3C(F)(F)F)cc2n1` [Compound 384, [2-{[Bis-(2-methoxy-ethyl)-amino]-methyl}-7-(3-trifluoromethyl-pyridin-2-yl)-quinazolin-4-yl]-(6-trifluoromethyl-pyridin-3-yl)-amine], the Ki was less than 1000 nM. In turn, `CCCCCN(CCCCC)Cc1nc(Nc2ccc(C(F)(F)F)nc2)c2ccc(-c3ncccc3C(F)(F)F)cc2n1` [Compound 385, [2-Dipentylaminomethyl-7-(3-trifluoromethyl-pyridin-2-yl)-quinazolin-4-yl]-(6-trifluoromethyl-pyridin-3-yl)-amine] registered an inhibition constant (Ki) of less than 1000 nM. Under `CCCCCCN(CCCCCC)Cc1nc(Nc2ccc(C(F)(F)F)nc2)c2ccc(-c3ncccc3C(F)(F)F)cc2n1` [Compound 386, [2-Dihexylaminomethyl-7-(3-trifluoromethyl-pyridin-2-yl)-quinazolin-4-yl]-(6-trifluoromethyl-pyridin-3-yl)-amine] stands less than 1000 nM; under `CC1CC(C)CN(Cc2nc(Nc3ccc(C(F)(F)F)nc3)c3ccc(-c4ncccc4C(F)(F)F)cc3n2)C1` (centres unmarked) [Compound 387, [2-(3,5-Dimethyl-piperidin-1-ylmethyl)-7-(3-trifluoromethyl-pyridin-2-y)-quinazolin-4-yl]-(6-trifluoromethyl-pyridin-3-yl)-amine], less than 1000 nM; under `CC(c1ccccc1)N(C)CCc1nc(Nc2ccc(C(F)(F)F)cc2)c2ccc(-c3ncccc3C(F)(F)F)cc2n1` (centres unmarked) [Compound 388, [2-{2-[Methyl-(1-phenyl-ethyl)-amino]-ethyl}-7-(3-trifluoromethyl-pyridin-2-yl)-quinazolin-4-yl]-(4-trifluoromethyl-phenyl)-amine], less than 1000 nM.

On to `CN(CCc1nc(Nc2ccc(C(F)(F)F)cc2)c2ccc(-c3ncccc3C(F)(F)F)cc2n1)C1CCc2ccccc21` (centres unmarked) [Compound 389, [2-[2-(Indan-1-yl-methyl-amino)-ethyl]-7-(3-trifluoromethyl-pyridin-2-yl)-quinazolin-4-yl]-(4-trifluoromethyl-phenyl)-amine], for which the Ki was less than 1000 nM.

`CCC(c1ccccc1)N(C)CCc1nc(Nc2ccc(C(F)(F)F)cc2)c2ccc(-c3ncccc3C(F)(F)F)cc2n1` (centres unmarked) [Compound 390, [2-{2-[Methyl-(1-phenyl-propyl)-amino]-ethyl}-7-(3-trifluoromethyl-pyridin-2-yl)-quinazolin-4-yl]-(4-trifluoromethyl-phenyl)-amine] yielded an inhibitory constant (Ki) of less than 1000 nM.

Consider `CC1c2ccccc2CCN1CCc1nc(Nc2ccc(C(F)(F)F)cc2)c2ccc(-c3ncccc3C(F)(F)F)cc2n1` (centres unmarked) [Compound 391, [2-[2-(1-Methyl-3,4-dihydro-1H-isoquinolin-2-yl)-ethyl]-7-(3-trifluoromethyl-pyridin-2-yl)-quinazolin-4-yl]-(4-trifluoromethyl-phenyl)-amine], for which the Ki was less than 1000 nM. The figure for `CN(CCc1nc(Nc2ccc(C(F)(F)F)cc2)c2ccc(-c3ncccc3C(F)(F)F)cc2n1)Cc1ccccc1` [Compound 392, [2-[2-(Benzyl-methyl-amino)-ethyl]-7-(3-trifluoromethyl-pyridin-2-yl)-quinazolin-4-yl]-(4-trifluoromethyl-phenyl)-amine] is less than 1000 nM; for `FC(F)(F)c1ccc(Nc2nc(CCN3CCc4ccccc4C3)nc3cc(-c4ncccc4C(F)(F)F)ccc23)cc1` [Compound 393, [2-[2-(3,4-Dihydro-1H-isoquinolin-2-yl)-ethyl]-7-(3-trifluoromethyl-pyridin-2-yl)-quinazolin-4-yl]-(4-trifluoromethyl-phenyl)-amine] it is less than 1000 nM.

`CN(CCc1nc(Nc2ccc(C(F)(F)F)cc2)c2ccc(-c3ncccc3C(F)(F)F)cc2n1)Cc1cccc(F)c1` [Compound 394, [2-{2-[(3-Fluoro-benzyl)-methyl-amino]-ethyl}-7-(3-trifluoromethyl-pyridin-2-yl)-quinazolin-4-yl]-(4-trifluoromethyl-phenyl)-amine] came in with a Ki of less than 1000 nM. Under `Cc1ccccc1CN(C)CCc1nc(Nc2ccc(C(F)(F)F)cc2)c2ccc(-c3ncccc3C(F)(F)F)cc2n1` [Compound 395, [2-{2-[Methyl-(2-methyl-benzyl)-amino]-ethyl}-7-(3-trifluoromethyl-pyridin-2-yl)-quinazolin-4-yl]-(4-trifluoromethyl-phenyl)-amine] stands less than 1000 nM; under `CN(CCc1nc(Nc2ccc(C(F)(F)F)cc2)c2ccc(-c3ncccc3C(F)(F)F)cc2n1)Cc1ccccc1F` [Compound 396, [2-{2-[(2-Fluoro-benzyl)-methyl-amino]-ethyl}-7-(3-trifluoromethyl-pyridin-2-yl)-quinazolin-4-yl]-(4-trifluoromethyl-phenyl)-amine], less than 1000 nM.

For the compound `FC(F)(F)c1ccc(Nc2nc(CCN(Cc3ccccc3)C3CC3)nc3cc(-c4ncccc4C(F)(F)F)ccc23)cc1` [Compound 397, [2-[2-(Benzyl-cyclopropyl-amino)-ethyl]-7-(3-trifluoromethyl-pyridin-2-yl)-quinazolin-4-yl]-(4-trifluoromethyl-phenyl)-amine], the Ki is less than 1000 nM. `CN(CCc1ccccc1)CCc1nc(Nc2ccc(C(F)(F)F)cc2)c2ccc(-c3ncccc3C(F)(F)F)cc2n1` [Compound 398, [2-[2-(Methyl-phenethyl-amino)-ethyl]-7-(3-trifluoromethyl-pyridin-2-yl)-quinazolin-4-yl]-(4-trifluoromethyl-phenyl)-amine]: the inhibitory constant (Ki) was less than 1000 nM.

Compound `FC(F)(F)c1ccc(Nc2nc(CCN3CCCCC3)nc3cc(-c4ncccc4C(F)(F)F)ccc23)cc1` [Compound 399, [2-Piperidin-1-ylethyl-7-(3-trifluoromethyl-pyridin-2-yl)-quinazolin-4-yl]-(4-trifluoromethyl-phenyl)-amine] yielded a Ki of less than 1000 nM.

As for `FC(F)(F)c1ccc(Nc2nc(CCN3CCOCC3)nc3cc(-c4ncccc4C(F)(F)F)ccc23)cc1` [Compound 400, [2-Morpholin-4-ylethyl-7-(3-trifluoromethyl-pyridin-2-yl)-quinazolin-4-yl]-(4-trifluoromethyl-phenyl)-amine], the Ki is less than 1000 nM. The figure for `CC1CCN(CCc2nc(Nc3ccc(C(F)(F)F)cc3)c3ccc(-c4ncccc4C(F)(F)F)cc3n2)CC1` [Compound 401, [2-(4-Methyl-piperidin-1-ylethyl)-7-(3-trifluoromethyl-pyridin-2-yl)-quinazolin-4-yl]-(4-trifluoromethyl-phenyl)-amine] is less than 1000 nM; for `FC(F)(F)c1ccc(Nc2nc(CCN3CCCCCC3)nc3cc(-c4ncccc4C(F)(F)F)ccc23)cc1` [Compound 402] it is less than 1000 nM. Consider `FC(F)(F)c1ccc(Nc2nc(CCN3CCSCC3)nc3cc(-c4ncccc4C(F)(F)F)ccc23)cc1` [Compound 403, [2-Thiomorpholin-4-ylethyl-7-(3-trifluoromethyl-pyridin-2-yl)-quinazolin-4-yl]-(4-trifluoromethyl-phenyl)-amine], for which the inhibition constant (Ki) was less than 1000 nM. The figure for `CC1(C)CCCN(CCc2nc(Nc3ccc(C(F)(F)F)cc3)c3ccc(-c4ncccc4C(F)(F)F)cc3n2)C1` [Compound 404, [2-(3,3-Dimethyl-piperidin-1-ylethyl)-7-(3-trifluoromethyl-pyridin-2-yl)-quinazolin-4-yl]-(4-trifluoromethyl-phenyl)-amine] is less than 1000 nM; for `FC(F)(F)c1ccc(Nc2nc(CCN3CCCCCCC3)nc3cc(-c4ncccc4C(F)(F)F)ccc23)cc1` [Compound 405, [2-Azocan-1-ylethyl-7-(3-trifluoromethyl-pyridin-2-yl)-quinazolin-4-yl]-(4-trifluoromethyl-phenyl)-amine] it is less than 1000 nM.

On to `CC1CCN(CCc2nc(Nc3ccc(C(F)(F)F)cc3)c3ccc(-c4ncccc4C(F)(F)F)cc3n2)CC(C)(C)C1` (centres unmarked) [Compound 406, (4-Trifluoromethyl-phenyl)-{7-(3-trifluoromethyl-pyridin-2-yl)-2-[2-(3,3,5-trimethyl-azepan-1-yl)-ethyl]-quinazolin-4-yl}-amine], for which the Ki was less than 1000 nM. The figure for `FC(F)(F)c1ccc(Nc2nc(CCN3CCC4(CC3)OCCO4)nc3cc(-c4ncccc4C(F)(F)F)ccc23)cc1` [Compound 407, [2-[2-(1,4-Dioxa-8-aza-spiro[4.5]dec-8-yl)-ethyl]-7-(3-trifluoromethyl-pyridin-2-yl)-quinazolin-4-yl]-(4-trifluoromethyl-phenyl)-amine] is less than 1000 nM.
